Laboratory results taken from ChEMBL document CHEMBL5149985, “Discovery of cytotoxic natural products from Red Sea sponges: Structure and synthesis” (Eur J Med Chem, 2021).
Values belong to the molecule of their own block, whether it stands above or below them.

Legend:
[1] = system: A549; experiment: Anticancer activity against human A549 cells assessed as inhibition of cell growth by dilution assay; format: functional, cell-based
[2] = system: P388; experiment: Anticancer activity against mouse P388 cells assessed as inhibition of cell growth by dilution assay; format: functional, cell-based
[3] = system: HT-29; experiment: Anticancer activity against human HT-29 cells assessed as inhibition of cell growth by dilution assay; format: functional, cell-based
[4] = system: P388; experiment: Anticancer activity against mouse P388 cells assessed as reduction in cell growth; format: functional, cell-based
[5] = system: HepG2; experiment: cells; conditions: Homo sapiens
Description: Anticancer activity against human HepG2 cells assessed as inhibition of cell growth by MTT assay

[6] = system: MCF7; experiment: Anticancer activity against human MCF7 cells assessed as inhibition of cell growth by MTT assay; format: functional, cell-based
[7] = system: HCT-116; experiment: cells; conditions: Homo sapiens
Description: Anticancer activity against human HCT-116 cells assessed as inhibition of cell growth by MTT assay

[8] = system: P388; experiment: Anticancer activity against mouse P388 cells assessed as inhibition of cell growth; format: functional, cell-based
[9] = system: HT-29; experiment: Anticancer activity against human HT-29 cells assessed as inhibition of cell growth; format: functional, cell-based
[10] = system: A549; experiment: Anticancer activity against human A549 cells assessed as inhibition of cell growth; format: functional, cell-based
[11] = system: HepG2; experiment: Anticancer activity against human HepG2 cells assessed as inhibition of cell growth; format: functional, cell-based
[12] = system: MCF7; experiment: Anticancer activity against human MCF7 cells assessed as inhibition of cell growth; format: functional, cell-based
[13] = system: HT-29; experiment: Anticancer activity against human HT-29 cells assessed as cell growth inhibition by crystal violet staining based assay; format: functional
[14] = system: MM1.S; experiment: Anticancer activity against human MM1.S cells assessed as cell growth inhibition by MTT assay; format: functional, cell-based
[15] = system: OVCAR-3; experiment: Anticancer activity against human OVCAR-3 cells assessed as cell growth inhibition by crystal violet staining based assay; format: functional
[16] = system: BT-474; experiment: Anticancer activity against human BT-474 cells assessed as cell growth inhibition incubated for 48 hrs by MTT assay; format: functional, cell-based; conditions: BT-474, 48 h
[17] = system: HCT-116; experiment: Antiproliferative activity against human HCT-116 cells assessed as cell viability measured after 24 hrs by MTT assay; format: functional, cell-based; conditions: HCT-116, 24 h
[18] = system: MDA-MB-231; experiment: Anticancer activity against human MDA-MB-231 cells assessed as cell viability measured after 24 hrs by MTT assay; format: functional, cell-based; conditions: MDA-MB-231, 24 h
[19] = system: HeLa; experiment: Antiproliferative activity against human HeLa cells assessed as cell viability measured after 24 hrs by MTT assay; format: functional, cell-based
[20] = system: L5178Y; experiment: Anticancer activity against mouse L5178Y assessed as cell growth inhibition by [3H]-thymidine assay; format: functional, cell-based
[21] = system: L5178Y; experiment: Anticancer activity against mouse L5178Y assessed as cell growth inhibition by [3H]-thymidine assay relative to control; format: functional
[22] = system: A549; experiment: Anticancer activity against human A549 cells assessed as inhibition of cell growth incubated for 24 hrs by MTT assay; format: functional, cell-based; conditions: A549, 24 h
[23] = system: MCF7; experiment: Anticancer activity against human MCF7 cells assessed as inhibition of cell growth incubated for 24 hrs by MTT assay; format: functional, cell-based; conditions: MCF7, 24 h
[24] = system: PC-3; experiment: Anticancer activity against human PC-3 cells assessed as inhibition of cell growth; format: functional, cell-based
[25] = system: A549; experiment: Anticancer activity against human A549 cells assessed as cell growth inhibition; format: functional, cell-based
[26] = system: HeLa; experiment: Anticancer activity against human HeLa cells assessed as inhibition of cell growth; format: functional, cell-based
[27] = system: Daoy; experiment: Anticancer activity against human Daoy cells assessed as inhibition of cell growth; format: functional, cell-based
[28] = system: SK-MEL-28; experiment: Anticancer activity against human MEL-28 cells assessed as cell growth inhibition; format: functional, cell-based
[29] = system: P388; experiment: Anticancer activity against mouse P388 cells assessed as cell growth inhibition; format: functional, cell-based
[30] = system: HT-29; experiment: Anticancer activity against human HT-29 cells assessed as cell growth inhibition; format: functional, cell-based

SMILES: CC1=C(CCC(C)(O)/C=C/C[C@@]2(C)CC[C@H]([C@@H](C)C(=O)O)OO2)C(C)(C)CCC1 (some centres undefined)
- IC50 [8]: > 2.4 nM
- IC50 [9]: > 2.4 nM
- IC50 [10]: > 2.4 nM

SMILES: C/C1=C/C(=O)O[C@@H]2C[C@@H](CC[C@H](C)/C=C\CC1)O[C@@](O)([C@@H]1CSC(=O)N1)C2 [LATRUNCULIN B]
- IC50 [11]: 19300 nM

SMILES: CCCCCCCCCCCCC(=O)N[C@@H](CO)[C@H](O)[C@H](O)CCCCCCCCCC
- IC50 [11]: 107000 nM
- IC50 [12]: > 200000 nM

SMILES: O=C1Nc2cc(Br)ccc2[C@@]1(c1cc2ccccc2[nH]1)c1c[nH]c2ccccc12
- IC50 [13]: 12500 nM
- IC50 [14]: 11000 nM
- IC50 [15]: 9000 nM

SMILES: C[C@@H]1CN2CCC[C@H]3CCCCCC[C@H]4CCN5CCC[C@@](O)(CCCCCC[C@@H]1O[C@H]32)[C@H]5O4 [XESTOSPONGIN B]
- IC50 [16]: 52500 nM

SMILES: COC1=C(Br)C[C@@]2(OC=C1Br)ON=C(C(=O)NCCCOc1c(Br)cc(CCNC(N)=O)cc1Br)[C@H]2O
- IC50 [17]: 8200 nM
- IC50 [18]: 19400 nM
- IC50 [19]: 22200 nM

SMILES: O=Cc1c[nH]c2ccccc12 [3-FORMYLINDOLE]
- IC50 [20]: 69 nM
- inhibition (INH) [21]: 53%

SMILES: C#C/C=C\CCCCCCCCCCC#CCCC(=O)NCCc1ccccc1
- IC50 [22]: 24200 nM
- IC50 [23]: 18000 nM

SMILES: O=C1Nc2ccc(Br)cc2[C@@]1(c1cc2ccccc2[nH]1)c1c[nH]c2ccccc12
- IC50 [13]: 8000 nM
- IC50 [14]: 9000 nM
- IC50 [15]: 7000 nM

SMILES: CC1=C(CC/C(C)=C/CC[C@@]2(C)CC[C@H]([C@@H](C)C(=O)O)OO2)C(C)(C)CCC1
- IC50 [24]: 8000 nM
- IC50 [12]: 7000 nM
- IC50 [25]: 3000 nM

SMILES: O=C(O)CCCC#CC#C/C=C/CCCCCCC=C(Br)Br
- IC50 [26]: 53.5 nM
- IC50 [27]: 35.6 nM
- IC50 [11]: 41.2 nM

SMILES: CCCCCCCCCCCCCCCCCCCCC[C@@H](O)[C@@H](O)[C@H](CO)NC(=O)[C@H](O)CCCCCCCCCCCCCCCC
- IC50 [11]: 24700 nM
- IC50 [12]: 26800 nM

SMILES: COC(=O)c1c[nH]c2ccc(O)cc12
- IC50 [20]: 52 nM
- inhibition (INH) [21]: 36%

Second part, the molecule after the results:

- IC50 [1]: 2.2 nM
- IC50 [2]: 2.2 nM
- IC50 [3]: > 2.2 nM
SMILES: CC1(C)CCC[C@]2(C)[C@H]3C[C@@H](O)[C@]4(C)c5cocc5C(=O)C[C@H]4[C@]3(C)CC[C@@H]12 [SALMAHYRTISOL B]

- IC50 [4]: 3.6 nM
SMILES: CC1=CCC[C@H]2[C@](C)(CC3=C(O)C(=O)C=C(O)C3=O)[C@@H](C)CC[C@]12C

- IC50 [5]: 2.9 nM
- IC50 [6]: 4.8 nM
- IC50 [7]: 1.3 nM
SMILES: CC[C@@]1(C)CCC[C@]2(C)[C@H]3C[C@H](OC(C)=O)[C@]4(C)C=C(C(C)=O)[C@H](OC(C)=O)C[C@H]4[C@]3(C)CC[C@@H]12

- IC50 [1]: 2.2 nM
- IC50 [2]: 2.2 nM
- IC50 [3]: > 2.2 nM
SMILES: CC(=O)OC[C@]1(C)CCC[C@]2(C)[C@H]3C[C@@H](O)[C@]4(C)C5=C(CC[C@H]4[C@]3(C)CC[C@@H]12)COC5=O

- IC50 [5]: 4.7 nM
- IC50 [6]: 1.3 nM
- IC50 [7]: 1.7 nM
SMILES: CC(=O)O[C@H]1C[C@@H]2[C@@]3(C)CCCC(C)(C)[C@@H]3CC[C@@]2(C)[C@@H]2CC=C(C(C)=O)[C@@H]3[C@@H](O)C[C@@]132

- IC50 [4]: 1.8 nM
SMILES: CC1=CCC[C@H]2[C@](C)(CC3=CC(=O)C=C(O)C3=O)[C@@H](C)CC[C@]12C

- IC50 [5]: 2.6 nM
- IC50 [6]: 4.6 nM
- IC50 [7]: 2.7 nM
SMILES: CC(=O)O[C@H]1C[C@H]2[C@@](C)(CCC3C(C)(C)CCC[C@@]32C)[C@@H]2C[C@@H](OC(C)=O)C(C(C)=O)=C[C@@]12C (some centres undefined)

- IC50 [4]: < 1.6 nM
SMILES: CC(=O)Oc1c(O)ccc(O)c1C[C@]1(C)[C@@H](C)CC[C@]2(C)C(C)=CCC[C@@H]12

- IC50 [11]: 16300 nM
SMILES: C/C1=C/C(=O)O[C@@H]2C[C@@H](CC[C@H](C)/C=C\CC1)O[C@@](O)([C@@H]1CS(=O)(=O)C(=O)N1O)C2

- IC50 [4]: > 54 nM
SMILES: COC1=CC(=O)C(C[C@]2(C)[C@@H](C)CC[C@]3(C)C(C)=CCC[C@@H]23)=C(O)C1=O

- IC50 [28]: 240 nM
- IC50 [29]: 240 nM
- IC50 [25]: 120 nM
- IC50 [30]: 120 nM
SMILES: C=C1CCC[C@@H]2[C@@](C)(CC[C@@]3(C)CCn4cnc5ncnc(c54)N3O)[C@H](C)CC[C@]12C
